# Columns and labels:
# GSK3β = target: T1, GSK3β (Homo sapiens, UniProt P49841); assay: cell-free kinase assay with recombinant enzyme and phosphopeptide substrate; format: biochemical
# T1 construct: gene GSK3B; human recombinant
# GSK3α = target: T2, GSK3α (Homo sapiens, UniProt P49840); assay: as above; format: biochemical
# T2 construct: gene GSK3A; human recombinant
# T2 sequence (P49840 2-483): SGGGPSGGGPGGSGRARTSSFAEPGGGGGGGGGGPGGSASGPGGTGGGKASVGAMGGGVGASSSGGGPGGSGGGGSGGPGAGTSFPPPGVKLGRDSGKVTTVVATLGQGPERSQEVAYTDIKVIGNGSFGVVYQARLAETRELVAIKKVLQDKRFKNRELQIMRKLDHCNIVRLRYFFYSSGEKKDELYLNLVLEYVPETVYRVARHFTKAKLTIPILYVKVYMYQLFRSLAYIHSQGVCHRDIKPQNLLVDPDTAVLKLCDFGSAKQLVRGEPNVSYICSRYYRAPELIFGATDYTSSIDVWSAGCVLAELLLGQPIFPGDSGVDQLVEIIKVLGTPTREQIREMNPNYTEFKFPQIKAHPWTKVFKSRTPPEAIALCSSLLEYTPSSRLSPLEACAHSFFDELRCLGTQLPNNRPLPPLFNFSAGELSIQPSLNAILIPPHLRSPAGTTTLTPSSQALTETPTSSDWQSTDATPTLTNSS
# T1 sequence (P49841 whole entry): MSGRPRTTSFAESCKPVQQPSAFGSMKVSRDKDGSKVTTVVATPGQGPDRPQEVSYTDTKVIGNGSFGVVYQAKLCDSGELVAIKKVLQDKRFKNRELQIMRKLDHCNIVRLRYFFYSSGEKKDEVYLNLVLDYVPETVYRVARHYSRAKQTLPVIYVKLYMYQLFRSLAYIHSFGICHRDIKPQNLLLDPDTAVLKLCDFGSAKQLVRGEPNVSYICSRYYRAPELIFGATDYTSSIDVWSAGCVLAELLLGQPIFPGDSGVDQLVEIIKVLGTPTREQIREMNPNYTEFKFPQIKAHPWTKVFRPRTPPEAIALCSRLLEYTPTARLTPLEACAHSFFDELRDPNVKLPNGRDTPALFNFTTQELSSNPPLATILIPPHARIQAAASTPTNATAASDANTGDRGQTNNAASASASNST
compound,measurement,setting,value
O=C1NC(=O)C(c2cnc3ccccn23)=C1c1cn2c3c(cc(F)cc13)CN(C(=O)N1CCCCC1)CC2 [LY2090314],IC50,GSK3β,0.9 nM
same,IC50,GSK3α,1.5 nM

# From article PMC4411090, “Activating the Wnt/β-Catenin Pathway for the Treatment of Melanoma – Application of LY2090314, a Novel Selective Inhibitor of Glycogen Synthase Kinase-3” (PLoS ONE, 2015)
